Test results from patent publication US20090076044A1, “VEGFR INHIBITORS CONTAINING A ZINC BINDING MOIETY” (priority 2007, published 2009).

Experiments:
[1] = molecular target: T1, human PDGFR-beta (Homo sapiens, UniProt P09619); experiment: PDGFR-beta radioisotope kinase assay; type: biochemical; conditions: 100 μM ATP; for IC50: read-out: PDGFRb IC50
T1 construct: fragment (amino acids 558-1106) amino-terminally fused to 6-histidine; 6xHis (N); made in house
Protocol: (a) An In Vitro Assay which-Determines the Ability of a Test Compound to Inhibit a Receptor Tyrosine Kinase.
The ability of compounds to inhibit receptor kinase (VEGFR2 and PDGFR-beta) activity was assayed using standard radioisotope assay for kinase. […] The proteins were purified using Ni2+/NTA agarose affinity column to purity
For PDGFR-beta assay, p33 ATP tracers were incubated with purified recombinant PDGFR-beta kinase to monitor the enzyme activity. In this assay, reactions were carried out in the presence of 0.4 mg/ml PDGFR-beta kinase and 200 nM of Abl peptide substrate ([…]). The reaction was carried out at 30° C. for 120 minutes in a final assay condition contained 20 mM Tris-HCl, pH 7.5, 100 mM NaCl, 0.05 mM EDTA, 0.05% NP-40, 1 mM DTT 50% glycerol and 100 μM ATP. An equal volume of 25% TCA was added to stop the reaction and precipitate the labeled peptides. Precipitated proteins were trapped onto glass fiber B filterplates and excess unlabeled p33 ATP was washed off. The plates were allowed to air-dry prior to the addition of 30 uL/well of Packard Microscint 20. The amount of incorporated isotope was measured using a Perkin Elmer TopCount plate reader. Different concentrations of compounds were added to reaction to assess the activity of compounds to inhibit PDGF-beta kinase. IC50 was calculated using Prism software with sigmoidal dose-response curve fitting.

[2] = molecular target: T2, human c-Kit (Homo sapiens, UniProt P10721); experiment: c-Kit kinase assay (HTScan Receptor Kinase Assay Kit, DELFIA); type: biochemical; conditions: 200 μM ATP
T2 construct: human c-Kit (Thr544-Val976); purchased Cell Signaling Technologies; host or cells: baculovirus expression system
Protocol: (f) An In Vitro Assay which Determines the Ability of a Test Compound to Inhibit c-Kit Kinase.
The ability of compounds to inhibit c-Kit tyrosine kinase activity was assayed using HTScan™ Receptor Kinase Assay Kits (Cell Signaling Technologies, Danvers, Mass.). c-Kit tyrosine kinase is obtained in partially purified form from GST-kinase fusion protein which is produced using a baculovirus expression system from a construct expressing human c-Kit (Thr544-Val976) with an amino-terminal GST tag. The protein was purified by one-step affinity chromatography using glutathione-agarose. An anti-phosphotyrosine monoclonal antibody, P-Tyr-100, is used to detect phosphorylation of biotinylated substrate peptide KDR (Tyr996). Enzymatic activity was tested in 60 mM HEPES, 5 mM MgCl2 5 mM MnCl2 200 μM ATP, 1.25 mM DTT, 3 μM Na3VO4, 1.5 mM peptide, and 50 ng c-Kit. Bound antibody was detected using the DELFIA system (PerkinElmer, Wellesley, Mass.) consisting of DELFIA® Europium-labeled Anti-mouse IgG (PerkinElmer, #AD0124), DELFIA® Enhancement Solution (PerkinElmer, #1244-105), and a DELFIA® Streptavidin coated, 96-well Plate (PerkinElmer, AAAND-0005). Fluorescence was measured on a WALLAC Victor 2 plate reader and reported as relative fluorescence units (RFU). Data were plotted using GraphPad Prism (v4.0a) and IC50's were calculated using a sigmoidal dose response curve fitting algorithm.
Test compounds were dissolved in dimethylsulphoxide (DMSO) to give a 20 mM working stock concentration. Each assay was set up as follows: 100 μl of 10 mM ATP is added to 1.25 ml 6 mM substrate peptide. The mixture was diluted with dH20 to 2.5 ml to make 2×ATP/substrate cocktail ([ATP]=[…], [substrate]=3 mM). The enzyme was immediately transferred from −80° C. to ice. The enzyme was allowed to thaw on ice. The mixture was microcentrifuged briefly at 4° C. to bring liquid to the bottom of the vial and returned immediately to ice. 10 μl of DTT (1.25 mM) was added to 2.5 ml of 4× HTScan™ Tyrosine Kinase Buffer (240 mM HEPES pH 7.5, 20 mM MgCl2, 20 mM MnCl, 12 mM NaVO3) to make DTT/Kinase buffer. 1.25 ml of DTT/Kinase buffer was transferred to enzyme tube to make a 4× reaction cocktail ([enzyme]=4 ng/μL in 4× reaction cocktail). 12.5 μl of the 4× reaction cocktail was incubated with 12.5 μl/well of prediluted compound of interest (usually around 10 μM) for 5 minutes at room temperature. 25 μl of 2×ATP/substrate cocktail is added to 25 μl/well preincubated reaction cocktail/compound. The reaction plate was incubated at room temperature for 30 minutes. 50 μl/well Stop Buffer (50 mM EDTA, pH 8) was added to stop the reaction. […] 615 nm fluorescence emission is detected using an appropriate Time-Resolved Plate Reader.

T1 sequence (P09619 558-1106): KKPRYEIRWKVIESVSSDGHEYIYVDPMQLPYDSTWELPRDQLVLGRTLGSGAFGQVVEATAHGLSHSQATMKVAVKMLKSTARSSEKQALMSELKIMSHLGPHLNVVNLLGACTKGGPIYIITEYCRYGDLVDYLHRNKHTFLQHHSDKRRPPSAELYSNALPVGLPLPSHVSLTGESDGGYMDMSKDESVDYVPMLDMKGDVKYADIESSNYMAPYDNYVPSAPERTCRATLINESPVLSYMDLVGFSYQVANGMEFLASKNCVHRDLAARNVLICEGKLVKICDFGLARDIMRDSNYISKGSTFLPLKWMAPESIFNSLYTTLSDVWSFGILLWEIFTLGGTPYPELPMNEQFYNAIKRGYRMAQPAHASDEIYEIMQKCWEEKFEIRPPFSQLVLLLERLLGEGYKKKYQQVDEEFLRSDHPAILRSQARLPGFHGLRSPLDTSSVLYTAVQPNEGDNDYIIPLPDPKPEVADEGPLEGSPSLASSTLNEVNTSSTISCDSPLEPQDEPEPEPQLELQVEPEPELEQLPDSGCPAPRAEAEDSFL
T2 sequence (P10721 544-976): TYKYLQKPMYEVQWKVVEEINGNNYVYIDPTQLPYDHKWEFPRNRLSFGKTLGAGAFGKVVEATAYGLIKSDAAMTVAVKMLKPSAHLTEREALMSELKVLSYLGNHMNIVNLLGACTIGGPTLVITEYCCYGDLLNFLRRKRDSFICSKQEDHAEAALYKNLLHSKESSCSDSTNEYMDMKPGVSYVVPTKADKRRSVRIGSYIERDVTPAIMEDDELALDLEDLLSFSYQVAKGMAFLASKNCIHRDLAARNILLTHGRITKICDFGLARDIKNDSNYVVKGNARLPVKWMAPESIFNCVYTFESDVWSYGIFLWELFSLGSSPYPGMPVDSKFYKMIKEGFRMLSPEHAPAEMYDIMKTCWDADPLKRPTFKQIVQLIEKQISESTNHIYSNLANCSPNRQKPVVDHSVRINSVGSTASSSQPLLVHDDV

Structure (SMILES) | IC50 [1] | IC50 [2] | PDGFRb IC50 [1]
COc1cc2c(Nc3ccc4[nH]c(C)cc4c3F)ncnc2cc1OCCCCCC(=O)NO [Compound 13, 6-(4-(4-fluoro-2-methyl-1H-indol-5-ylamino)-6-methoxyquinazolin-7-yloxy)-N-hydroxyhexanamide] | 1000 to 10000 nM | 100 to 1000 nM | 
COc1cc2c(Nc3ccc4[nH]c(C)cc4c3F)ncnc2cc1OCCCCCCC(=O)NO [Compound 14, 7-(4-(4-fluoro-2-methyl-1H-indol-5-ylamino)-6-methoxy-quinazolin-7-yloxy)-N-hydroxyheptanamide] | > 10000 nM | 100 to 1000 nM | 
COc1cc2c(Oc3ccc4[nH]c(C)cc4c3F)ncnc2cc1OCCCCCCC(=O)NO [Compound 11, 7-(4-(4-fluoro-2-methyl-1H-indol-5-yloxy)-6-methoxyquinazolin-7-yloxy)-N-hydroxyheptanamide] |  | < 100 nM | Inactive
Cc1cc2c(F)c(Nc3ncnc4cc(OCCCN5CCCC5)c(OCCCCCCC(=O)NO)cc34)ccc2[nH]1 [Compound 20, 7-(4-(4-Fluoro-2-methyl-1H-indol-5-ylamino)-7-(3-(pyrrolidin-1-yl)propoxy)quinazolin-6-yloxy)-N-hydroxyheptanamide] | > 10000 nM | 100 to 1000 nM | 
